From patent publication US20150126581A1, “MicroRNAs and Uses Thereof” (The University of Western Australia, priority 2012, published 2015)

Tests used:
[1] = tested on: HeLa cells; test: Observation of HeLa cell morphology and size under mimosine; format: cell-based, human; settings: increasing concentrations of mimosine
Description: The effect of the combination of hsa-miR-331-3p and hsa-miR-642-5p on the transient effects of the DOHH inhibitor mimosine in HeLa cells was assessed. Initially, the xCELLigence™ System was used but growth curves could not be established using mimosine that reflected the observed changes in cell viability (data not shown). […] This was attributed to the ability of mimosine to arrest cell in […] and increase cell size by up to 25%.

[2] = tested on: HeLa cells; test: CellTiter 96 AQueous One (MTS) endpoint growth assay with mimosine; format: cell-based, human; settings: mimosine 50 and 250 μM, 3 d exposure (Day 5 post miRNA transfection)
Description: Endpoint growth assays were then performed using the CellTiter 96® AQueous One Solution Cell Proliferation System (MTS) (Promega, USA) to determine effects of miRNAs and mimosine on cell proliferation. HeLa cells were transiently transfected with miRNA negative control or hsa-miR-331-3p/hsa-miR-642-5p as described above, and 5000 transiently transfected HeLa cells were plated in 96 well plates. Plates were incubated in a 37° C. incubator (5% CO2) for 2 days and then exposed for a further 3 days to mimosine (0, 50 or 250 μM). Media was then replaced with a MTS substrate/growth media mixture (180 μL of growth media, 20 μL MTS reagent) and left for 30 min at 37° C. Absorbance was measured using a Fluostar Optima Instrument (Walker scientific) at 450 nm.

[3] = tested on: HeLa cells; settings: stated ability of mimosine (arrest in G1); cited from earlier work
[4] = tested on: obese diabetic mice; settings: cited from earlier work

| Compound | HeLa cell morphology [1] | HeLa cell proliferation (MTS), mimosine alone [2] | Increase of cell size [3] | Glucose tolerance [4] | Insulin release [4] | β cell mass [4] |
| --- | --- | --- | --- | --- | --- | --- |
| NC(Cn1ccc(=O)c(O)c1)C(=O)O (stereo not drawn) [mimosine] | changed the morphology of HeLa cells from a spindle like epithelial morphology to a large, round and flattened morphology | significant block of cell proliferation | up to 25% |  |  |  |
| N=C(N)NCCCCCCCN [GC7, N1-guanyl-1,7-diaminoheptane] |  |  |  | improved glucose tolerance | increased insulin release | enhanced β cell mass |
